Drawing on ChEMBL document CHEMBL1136199, “2,6,8,9-tetrasubstituted purines as new CDK1 inhibitors” (Bioorg Med Chem Lett, 2003), this text covers IC50 for 13 molecules.

One assay has as its system K562. The assay can be described thus: cells. In kind it is functional, cell-based. The following applies: Homo sapiens.
For another assay, the system named is MCF7. Put plainly: cells. To be noted: Homo sapiens. The assay is classed as functional, cell-based.

pIC50: −log10 of the molar value.

Description for K562: Cytotoxic property against K562 cell line was determined
Description for MCF7: Cytotoxic property against MCF-7 cell line was determined

Usually pIC50 stands for −log10 of the IC50, conventionally taken in molar units. As to `CCC(CO)Nc1nc(NCc2ccccc2)c2nc(C)n(C(C)C)c2n1` (stereo not given), the pIC50 is 4.24 in the assay with K562 and 4.03 in the assay with MCF7.
As to `CCC(CO)Nc1nc(NCc2ccccc2)c2nc(Cl)n(C(C)C)c2n1` (stereo not given), the pIC50 in the assay with K562 was 4.04; in the assay with MCF7 it was 4.27.
The like results for `Cc1nc2c(Nc3cccc(Cl)c3)nc(NC3CCC(N)CC3)nc2n1C(C)C` (stereo not given) were, in that order, 5.46 and 5.10.
For the molecule `CCC(CO)Nc1nc(NCc2ccccc2)c2nc(NCCCO)n(C(C)C)c2n1` (stereo not given), the pIC50 with K562 is 4.52; in the assay with MCF7 it was 4.40.
The like results for `CC(C)n1cnc2c(Nc3cccc(Cl)c3)nc(NC3CCC(N)CC3)nc21` (stereo not given) were, in that order, 5.85 and 5.96.
With `CCC(CO)Nc1nc(NCc2ccccc2)c2nc(Br)n(C(C)C)c2n1` (stereo not given), the pIC50 in the assay with K562 was 4.57; in the assay with MCF7 it was 4.28.
`CCC(CO)Nc1nc(NCc2cccc(O)c2)c2nc(Cl)n(C(C)C)c2n1` (stereo not given): the pIC50 with K562 and in the assay with MCF7 was 4.57 throughout.
`CCC(CO)Nc1nc(NCc2ccccc2)c2nc(O)n(C(C)C)c2n1` (stereo not given): the pIC50 in the assay on K562 was 4.13.
Take `CCC(CO)Nc1nc(NCc2ccccc2)c2nc([N+](=O)[O-])n(C(C)C)c2n1` (stereo not given): the pIC50 with K562 and in the assay on MCF7 was 3.93 each time.
As for `CCCOc1nc2c(NCc3ccccc3)nc(NC(CC)CO)nc2n1C(C)C` (stereo not given), the values for the pIC50 with K562 and with MCF7 were 4.70 and 4.30, respectively.
Consider `CCC(CO)Nc1nc(NCc2ccccc2)c2nc(S)n(C(C)C)c2n1` (stereo not given), for which the results for the pIC50 in the assay with K562 and in the assay with MCF7 were 3.81 and 4.26, respectively.
The like results for `CCC(CO)Nc1nc(NCc2ccccc2)c2nc(N)n(C(C)C)c2n1` (stereo not given) were, in that order, 4.10 and 4.22.
The like results for `CC(C)C(CO)Nc1nc(Nc2cccc(Cl)c2)c2nc(Cl)n(C(C)C)c2n1` (stereo not given) were, in that order, 4.68 and 4.35.
